Reference: patent US20250236610A1, “3-[(1H-PYRAZOL-4-YL)OXY]PYRAZIN-2-AMINE COMPOUNDS AS HPK1 INHIBITOR AND USE THEREOF” (BeiGene, Ltd., priority 2020, published 2025)
pIC50: −log10 of the molar value.

Key:
[1] = target: HPK1 kinase (aa1-346, Life Technologies) (Homo sapiens (Human), UniProt Q92918); experiment: HPK Kinase Activity Assay at 1 mM ATP (TR-FRET); format: biochemical; details: HPK1 kinase 40 nM, 0.5 μM STK1 substrate, read-out: Enzymatic activity IC50
[2] = test system: pSLP76(S376) level in Jurkat cell line; experiment: Cellular pSLP76(S376) HTRF Assay; format: cell-based; details: Homo sapiens, Jurkat cells, 2 h compound treatment, 0.05 μg/mL anti-human CD3 (OKT3) 30 min

Sequence of HPK1 kinase (aa1-346, Life Technologies) (Q92918 1-346): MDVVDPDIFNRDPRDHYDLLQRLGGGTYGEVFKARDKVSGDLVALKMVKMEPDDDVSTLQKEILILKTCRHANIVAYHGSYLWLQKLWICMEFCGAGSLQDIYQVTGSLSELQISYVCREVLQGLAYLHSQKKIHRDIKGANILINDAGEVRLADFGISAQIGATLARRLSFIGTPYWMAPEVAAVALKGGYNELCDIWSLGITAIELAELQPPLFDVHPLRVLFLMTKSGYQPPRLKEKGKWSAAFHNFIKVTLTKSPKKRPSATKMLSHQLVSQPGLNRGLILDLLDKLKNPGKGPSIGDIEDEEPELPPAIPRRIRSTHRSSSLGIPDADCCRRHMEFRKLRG

Row | pIC50 [1] | pIC50 [2] | SMILES
1 | 7.36 |  | C[C@@H]1COCCN1c1cc(-c2cnc(N)c(Oc3cnn(C4CCN(C)CC4)c3)n2)cc([C@@]2(O)CCO[C@@H]2C)c1 (single isomer, unassigned) [Example A95A]
2 | 8.35 | 7.17 | C[C@@H]1COCCN1c1cc(-c2cnc(N)c(Oc3cnn(C4CCN(C)CC4)c3)n2)cc([C@]2(O)CCO[C@H]2C)c1 (single isomer, unassigned) [Example A95B]
